Experimental data as given in patent US20120237441A9, “ENHANCED B CELL CYTOTOXICITY OF CDIM BINDING ANTIBODY” (priority 2003, published 2012).
“And” between values parts separate entries of the source, which are not always exact repeats. Equal values may be shown once.

Key:
Nalm-6 cells = test: Cell viability assay using PI staining and forward scatter; type: cell-based, human; details: for viability: cytochalasin 5 μgs/ml or jasplakinolide 3 μgs/ml for 2 hr, then control antibodies; for effect of caspase inhibitor on cell viability: 10 μM for 2 hr at 37° C. before treatment with mAb 216
Procedure: The integrity of the plasma membrane was assessed by the ability of cells to exclude propidium iodide (PI, Sigma, St. Louis, Mo.). The level of PI incorporation was quantitated by flow cytometry on FACScan (Becton-Dickinson, San Jose Calif.) interfaced with VersatermPro and FlowJo software at Stanford's FACS facility. PI-negative cells with normal size as measured by forward scatter signals were considered live cells.
Briefly, cells were treated as specified in each experiment and resuspended in PBS with 3% FCS and 10 μgs/ml of PI. In experiments where toxicity was evaluated in Ca-free medium, cells were resuspended in appropriate media with or without calcium to which 10 μgs/ml PI was added. Since previous studies have shown that mAb 216-mediated toxicity is remarkably pronounced at lower temperatures (Bhat, N. M., et al. (1996) Clin. Exp. Immunol. 105:183), precautions were taken to keep all media and cells at 37° C. and the centrifuge at room temperature.
Cytochalasin was obtained from Sigma and jasplakinolide was obtained from Molecular Probes (Eugene, Oreg.). Caspase inhibitors, Ac-IETD-CHO and Ac-DEVD-CHO were obtained from PharMingen (San Diego, Calif.). Nalm-6 cells (1×10^6 cells/ml) were treated with jasplakinolide (3 μgs/ml), cytochalasin (5 μgs/ml), or caspase inhibitors (10 μM) for 2 hr at 37° C. before treatment with mAb 216. Control samples with equivalent amounts of DMSO were set in parallel. Cells were then exposed to 25 μg of mAb 216 or control Ab and analyzed by flow cytometry.
Since exocytosis of lysosomes is known to be a calcium dependent phenomenon (Miyake, K., and P. L. McNeil (1995) J. Cell Biol. 131:1737; Bi, G. Q., et al. (1995) J. Cell Biol. 131:1747), membrane wounding by mAb 216 nd repair of the wound was tested in calcium free and normal calcium conditions. The cell viability of Nalm-6 cells when treated with two VH4-34 encoded mAbs, mAb 216 at 50, 25 and 12.5 ng/ml concentrations, and Y2K at 50 ng/ml, was tested in the presence of media with and without calcium.
Brefeldin-A was obtained from Sigma. Nalm-6 cells (1×10^6 cells/ml) were treated with BFA (25 μg/ml) for 2 hr at 37° C. before treatment with mAb 216. Control samples with equivalent amounts of DMSO were set in parallel. Cells were then exposed to 25 μg of mAb 216 or control Ab and analyzed by flow cytometry.

Reh = test: In vitro cytotoxicity of mAb216 in combination with chemotherapeutic agents; type: cell-based, human; details: 48 h; for % change in live cells: versus control
Procedure: (§1) Three cell lines which have been derived from ALL blasts of different genotype and phenotype, Nalm 6, REH, and SUPB15, were incubated with mAb 216 alone or in combination with vincristine (VCR), for 48 hours at 37° C.
(§2) In vitro cytotoxicity of mAb216 in combination with single chemotherapeutic agents was tested. Three cell lines which have been derived from ALL blasts of different genotype and phenotype, Nalm 6, REH, and SUPB 15, were incubated with mAb 216 alone or in combination with vincristine (VCR), daunorubicin (DNR), or L-asparaginase (ASPR).

Nalm 6 = test: as above; type: cell-based, human; details: for Live cells ×10^5 / % change in live cells: 48 h; for % change in live cells: versus control
Procedure: as §1, §2

SUP B15 = test: as above; type: cell-based; details: 48 h; for % change in live cells: versus control
Procedure: as §1, §2

Molecule: C[C@H]1CCC/C=C/[C@@H]2C[C@H](O)C[C@H]2[C@H](O)/C=C/C(=O)O1 [BFA, Brefeldin A]
- viability of cells treated with control antibodies (Nalm-6 cells; BFA 25 μg/ml for 2 hr): no effect

Molecule: COc1cccc2c1C(=O)c1c(O)c3c(c(O)c1C2=O)C[C@@](O)(C(C)=O)C[C@@H]3O[C@H]1C[C@H](N)[C@H](O)[C@H](C)O1 [DNR, daunorubicin]
- Live cells ×10^5 (Reh; DNR 5 ng/ml): 4.5 ×10^5
- % change in live cells (Reh; DNR 5 ng/ml): 65%
- Live cells ×10^5 (Nalm 6; DNR 5 ng/ml): 4.3 ×10^5 and 4.5 ×10^5
- % change in live cells (Nalm 6; DNR 5 ng/ml): 47% and 59%
- Live cells ×10^5 (SUP B15; DNR 4 ng/ml): 0.44 ×10^5
- % change in live cells (SUP B15; DNR 4 ng/ml): 91%

Molecule: CC[C@]1(O)C[C@H]2CN(CCc3c([nH]c4ccccc34)[C@@](C(=O)OC)(c3cc4c(cc3OC)N(C=O)[C@H]3[C@@](O)(C(=O)OC)[C@H](OC(C)=O)[C@]5(CC)C=CCN6CC[C@]43[C@@H]65)C2)C1 [VCR, vincristine]
- Live cells ×10^5 (Reh; VCR 2 ng/ml): 4.2 ×10^5 and 7.7 ×10^5
- Live cells ×10^5 (Nalm 6; VCR 0.2 ng/ml): 13 ×10^5
- % change in live cells (Nalm 6; VCR 0.2 ng/ml): 0%
- Live cells ×10^5 (Nalm 6; VCR 2 ng/ml): 5 ×10^5
- % change in live cells (Nalm 6; VCR 2 ng/ml): 54%
- cell death due to vincristine alone (Nalm 6; vincristine 0.2 ng/ml, 48 hours at 37° C.): no cell death occurred
- Live cells ×10^5 (SUP B15; VCR 2 ng/ml): 2.8 ×10^5
- % change in live cells (SUP B15; VCR 2 ng/ml): 45%

Molecule: C/C1=C\[C@H](C)C[C@H](C)OC(=O)C[C@H](c2ccc(O)cc2)NC(=O)[C@@H](Cc2c(Br)[nH]c3ccccc23)N(C)C(=O)[C@H](C)NC(=O)[C@@H](C)C1 [jasplakinolide]
- viability (Nalm-6 cells): did not show a decrease in viability

Molecule: Ac-DEVD-CHO
- effect of caspase inhibitor on cell viability (Nalm-6 cells): did not alter cell viability

Molecule: Ac-IETD-aldehyde
- effect of caspase inhibitor on cell viability (Nalm-6 cells): did not alter cell viability

Molecule: cytochalasin
- viability (Nalm-6 cells): did not show a decrease in viability

B1: L-asparaginase (protein, UniProt P00805 23-348, looked up)
L-asparaginase 2: LPNITILATGGTIAGGGDSATKSNYTVGKVGVENLVNAVPQLKDIANVKGEQVVNIGSQDMNDNVWLTLAKKINTDCDKTDGFVITHGTDTMEETAYFLDLTVKCDKPVVMVGAMRPSTSMSADGPFNLYNAVVTAADKASANRGVLVVMNDTVLDGRDVTKTNTTDVATFKSVNYGPLGYIHNGKIDYQRTPARKHTSDTPFDVSKLNELPKVGIVYNYANASDLPAKALVDAGYDGIVSAGVGNGNLYKSVFDTLATAAKTGTAVVRSSRVPTGATTQDAEVDDAKYGFVASGTLNPQKARVLLQLALTQTKDPQQIQQIFNQY
- Live cells ×10^5 (Reh; ASPR 0.8 U/ml): 6.2 ×10^5
- % change in live cells (Reh; ASPR 0.8 U/ml): 35%
- Live cells ×10^5 (Nalm 6; ASPR 0.8 U/ml): 9.2 ×10^5
- % change in live cells (Nalm 6; ASPR 0.8 U/ml): 23%
- Live cells ×10^5 (SUP B15; ASPR 0.8 U/ml): 3 ×10^5
- % change in live cells (SUP B15; ASPR 0.8 U/ml): 47%
